According to patent publication US20240114902A1, “COMPOSITIONS AND METHODS FOR DETERRING OVIPOSITION BY FRUIT FLIES” (The United States of America, as represented by The …, priority 2022, published 2024):

Key:
Assay type in all cases: in vivo
[1] = tested on: Bactrocera dorsalis (OFF); assay: OFF two-choice cage oviposition bioassay on guava juice-infused agar; parameters: key to Activity (OFF oviposition group): Negative: “OFF negative” (i.e., oviposition reduced); Neutral: “OFF neutral” (i.e., no effect on oviposition); Positive: “OFF positive” (i.e., oviposition increased); conditions: for OFF oviposition reduction vs control agar: 20 mg/agar, 3 days; for Activity (OFF oviposition group): individual CFA component
Protocol: Evaluation of oviposition deterrence of CFA: OFF oviposition bioassays were conducted using laboratory two-choice cage experiments with guava juice-infused agar as an oviposition substrate. The agar plates were prepared by pouring 30 mL of boiled agar mixture [1000 mL distilled water, 500 mL guava juice (Deans Foods, El Paso, Texas, USA), 10 g agar, 0.6 g methylparaben, 6.7 mL 95% ethanol, and 3 mL acetic acid] into a 30 mL deli plastic cup to gel. The agar was then covered with a lid to avoid desiccation. The two-choice oviposition bioassay was conducted in screened cages using 20 mated OFF females per cage (12-18 day-old; Jang E B et al., 1997, “Attraction of female oriental fruit fly, Bactrocera dorsalis, to volatile semiochemicals from leaves and extracts of a non-host plant, Panax (Polyscias guilfoylei) in laboratory and olfactometer assays,” J. Chem. Ecol. 23:1389-1401) over 3 days. Each cage was provided with a ball of water-saturated cotton, sugar, and protein hydrolysate in separate 30 mL deli cups and two guava juice agar plates-one treated with CFA diluted in hexane and the other treated with the hexane control. The agar plates were surface-treated either with 200 μL of hexane or 200 μL of CFA in one of 4 doses tested (20, 2, 0.2, and 0.02 mg/200 μL of hexane), placed into a fume hood for 10 minutes prior to use in bioassays, and positioned upside-down (i.e., treated side down) on the center of the outside top of the screened cage 17 cm apart from each other (i.e., one each of control and CFA treated), allowing female flies to oviposit on guava juice agar from the bottom through the cage screen. After three days, OFF eggs in the guava agar were gently separated from the agar in water and the number of eggs were individually counted (up to 100 eggs) or estimated volumetrically at 1 mL OFF eggs=20,000 eggs (Stephanie Gayle personal communication). The experiment was replicated six times per treatment. Determination of bioactive oviposition deterrent components from CFA: A series of bioassays was conducted to identify key deterrent components of CFA for OFF using the same two-choice bioassay design described above. […] Ethanol was used as control and for preparing dilutions of C16:0 and C18:0. Hexane was used as control and for dilutions of the other six compounds tested. Based on the outcome of these bioassays, the eight free fatty acid components were assigned to “OFF negative” (i.e., oviposition reduced), “OFF neutral” (i.e., no effect on oviposition), and “OFF positive” (i.e., oviposition increased) compound groups. Using these groupings, four different blends were formulated (indicated in Table 1), composed at the equivalent ratios and concentrations of each component found in CFA (Zhu J J et al., 2018, supra), to determine key bioactive CFA components in terms of oviposition deterrence on OFF. The approach involved testing the bioactivity of the OFF negative-component blend (4c blend) for oviposition deterrence at three different doses (2, 0.2, and 0.02 mg CFA equivalent/agar), first comparing with hexane control, then with CFA at respective equivalent doses. As the 4c blend was not as effective as CFA, a “OFF negative+OFF neutral” component blend (6c blend) was then formulated, and its effect compared with CFA at 2 and 0.2 mg CFA equivalent/agar. Two subtraction blends with one of the two OFF neutral components removed from the 6c blend (5c-i and 5c-ii blends) were formulated and compared with the 6c blend at 2 and 0.2 mg CFA equivalent/agar. The experiment was replicated four to six times per treatment.

[2] = tested on: Drosophila suzukii (SWD); assay: Field test 2: sentinel raspberries in guava orchard, SWD adults emerged; conditions: 20 mg CFA equivalent/raspberry, total over replicates
Protocol: Field test 2 The oviposition deterrence of the 2c key-component blend and its two individual components against SWD and non-SWD drosophilids was tested under field conditions. This experiment was conducted in a guava orchard (19° 36′33.6″N, 155° 04′ 12.6″W) located near Hilo, Hawaii. To monitor oviposition, four sentinel organic raspberries purchased from a local grocery were placed (receptacles stuffed with cotton) inside a deli cup (600 mL; Placon, Madison, Wisconsin, USA). Each cup had nine 1 cm diameter holes spaced 3 cm apart along the cup's circumference and 8.5 cm from the bottom, which allowed the drosophilids to enter the cup. The four raspberries in each cup were surface-treated with one of five treatments: 1) 2c blend at 20 mg CFA equivalent/200 μL hexane/raspberry, 2) C8:0 at 20 mg CFA equivalent/200 μL hexane/raspberry, 3) C10:0 at 20 mg CFA equivalent/200 μL hexane/raspberry, 4) CFA at 20 mg/200 μL hexane/raspberry, or 5) 200 μL of hexane control/raspberry. The deli-cup traps were hung in guava trees 1.5 m from the ground with at least 10 m spacing between adjacent traps. […] Raspberries were removed from the traps, placed in rearing cups (600 mL deli cup with organdy cap), held in environmental chamber (22.1±1.9° C., 71.7±3.1% RH, 16:8 L:D), and monitored over a 2-week period. All emerged adults were counted and identified as SWD or non-SWD drosophilids. […]

[3] = tested on: Drosophila suzukii (SWD); assay: SWD laboratory no-choice oviposition test on raspberries; conditions: 20 mg CFA or 20 mg CFA equivalent dose, 24 hours
Protocol: Laboratory no-choice test The oviposition deterrence of the key-component blend determined from the “Laboratory choice test 2” described above (2c blend composed of C8:0 and C10:0; Table 2) was tested using a no-choice bioassay in Geneva, New York, USA using organic raspberries purchased from a local grocery and using 30 cm×30 cm×30 cm screened cages as described above. Each cage held four raspberries on a 10 cm diameter glass petri dish lined with filter paper and assigned to one of five treatments: 1) 20 mg of CFA/200 μL hexane/raspberry, 2) C8:0 at 20 mg CFA equivalent dose/200 μL hexane/raspberry, 3) C10:0 at 20 mg CFA equivalent dose/200 μL hexane/raspberry, 4) 2c blend at 20 mg CFA equivalent dose/200 μL hexane/raspberry, or 5) 200 μL of hexane control/raspberry (see Table 2 for equivalent doses). Twenty SWD females (5 days old) were released into each cage and allowed to oviposit on raspberries over 24 hours in an environmental chamber (25° C., 55% RH, 16:8 L:D). At the end of each trial, the raspberries were inspected under a dissecting microscope and the eggs were counted. The experiment was replicated eight times per treatment.

| SMILES | OFF oviposition reduction vs control agar [1] | Activity (OFF oviposition group) [1] | SWD adults emerging from treated raspberries [2] | effect on SWD oviposition vs solvent control [3] | OFF oviposition deterrence at lower dose ([1]; individual compound, 2 mg dose) |
| --- | --- | --- | --- | --- | --- |
| CCCCCCCCCC(=O)O [C10:0, capric acid] | 92% | Negative | 2 SWD | significantly reduced SWD oviposition | – |
| CCCCCCCC(=O)O [C8:0, caprylic acid] | 95% | Negative | – | significantly reduced SWD oviposition | maintained OFF oviposition deterrence |
